Assay results as given in PMC3391563 (2011).
Like-named read-outs stand apart in the source and are kept apart here.

Key:
[1] = target: T1, Af-OMO (ornithine monooxygenase, SidA) (Aspergillus fumigatus, UniProt E9QYP0); experiment: hydroxylation coupling ratio; format: biochemical
[2] = target: T1, Af-OMO (ornithine monooxygenase, SidA)
[3] = target: T1, Af-OMO (ornithine monooxygenase, SidA); experiment: stopped-flow UV/vis, concentration dependence of kobs for FAD-OOH formation; format: biochemical
[4] = target: T1, Af-OMO (ornithine monooxygenase, SidA); experiment: as above; format: biochemical; remark: listed apart in the source
[5] = target: T1, Af-OMO (ornithine monooxygenase, SidA); experiment: stopped-flow UV/vis, concentration dependence of kobs; format: biochemical
[6] = target: T1, Af-OMO (ornithine monooxygenase, SidA); experiment: as above; format: biochemical; remark: listed apart in the source
[7] = target: T1, Af-OMO (ornithine monooxygenase, SidA); experiment: stopped-flow; format: biochemical

T1 sequence (E9QYP0 whole entry): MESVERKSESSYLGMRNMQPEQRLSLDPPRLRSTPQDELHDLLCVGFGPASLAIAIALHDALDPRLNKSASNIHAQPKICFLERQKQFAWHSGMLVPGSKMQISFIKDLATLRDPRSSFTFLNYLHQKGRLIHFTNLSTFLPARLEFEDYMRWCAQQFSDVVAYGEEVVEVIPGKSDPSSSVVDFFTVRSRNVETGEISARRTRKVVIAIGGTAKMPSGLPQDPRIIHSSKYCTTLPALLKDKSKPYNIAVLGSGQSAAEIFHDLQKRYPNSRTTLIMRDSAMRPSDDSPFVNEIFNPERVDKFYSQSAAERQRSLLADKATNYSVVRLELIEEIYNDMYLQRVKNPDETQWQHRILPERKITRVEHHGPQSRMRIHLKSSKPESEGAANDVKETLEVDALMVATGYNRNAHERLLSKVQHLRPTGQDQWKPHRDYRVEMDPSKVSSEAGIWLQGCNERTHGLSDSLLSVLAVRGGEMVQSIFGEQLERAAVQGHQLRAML

NCCC[C@@H](N)C(=O)O [D-Orn, D-ornithine]
compd-OH: NADPH ^c [1]: 0.63 (0.03)

NCCCCN [DAB, 1,4-diaminobutane]
compd-OH: NADPH ^c [2]: 0.59 (0.02)

N=C(N)NCCC[C@H](N)C(=O)O [L-Arg, L-arginine]
Kd [3]: 620 ± 70 µM

NC(=O)NCCC[C@H](N)C(=O)O [L-Citr, L-citrulline]
Kd [4]: 4400 ± 900 µM

NCCCC[C@H](N)C(=O)O [L-Lys, L-lysine]
Kd [5]: 130 ± 30 µM

NCCC[C@H](N)C(=O)O [L-Orn, L-ornithine]
Kd [6]: 310 ± 40 µM

N[C@@H](CCCNO)C(=O)O [L-Orn-N^εOH, N^ε-hydroxy-L-ornithine]
kFAD (s^-1) [7]: 0.34 (0.01) s^-1
